Measured values as given in patent US20220048888A1, “PYRIMIDINYL-HETEROARYLOXY-NAPHTHYL COMPOUNDS AND METHODS OF USE” (Genentech, Inc., priority 2018, published 2022).

Molecular target: T1, kinase domain of IRE1 alpha (Homo sapiens, UniProt O75460, D688N)
T1 construct: (KR, AA G547-L977, D688N); made in house; host or cells: Sf9 insect cells
Assay: IRE1α TR-FRET competition binding assay
Conditions: Kinase Tracer 236 0.1 μM; kinase dead IRE1 alpha KR construct
Experimental: To determine the affinity of compound binding to the kinase domain of IRE1 alpha, a Time Resolved Fluorescence Resonance Energy Transfer (TR-FRET) competition assay was used. A His-tagged IRE1 alpha kinase dead construct containing the kinase and RNase domains (KR, AA G547-L977, D688N) was expressed in Sf9 insect cells. The purified protein (final concentration 0.006 OA micromolar) was pre-incubated with anti-His Europium labeled antibody (Life Technologies PV5596, final concentration 0.002 OA micromolar) for one hour at 4° C. in 1×TR-FRET Assay Buffer (50 mM HEPES, pH 7.5, 10 mM MgCl2, 0.083 mM Brij 35, 1 mM DTT, and 0.1% bovine gamma globulin) prior to addition to test compounds. A fluorescent labeled probe based on an ATP competitive inhibitor (Kinase Tracer 236, Life Technologies PV5592) is added to a final concentration of 0.1 μM (micromolar). Reactions were carried out for one hour at room temperature in a final volume of 20 μL (microliter) in 384 well white ProxiPlates (Perkin Elmer 6008289). Binding of the tracer to the IRE1 protein alpha was detected in an Envision instrument (PerkinElmer) equipped with a TRF laser option and a LANCE/Delfia Dual/Bias D400/D630 mirror (Ex 347 nm, 1st Em 665 nm, 2nd Em 615 nm).
Exemplary compounds depicted in Table 1 were tested in the IRE1α binding assays.

T1 sequence (O75460 547-977 D688N): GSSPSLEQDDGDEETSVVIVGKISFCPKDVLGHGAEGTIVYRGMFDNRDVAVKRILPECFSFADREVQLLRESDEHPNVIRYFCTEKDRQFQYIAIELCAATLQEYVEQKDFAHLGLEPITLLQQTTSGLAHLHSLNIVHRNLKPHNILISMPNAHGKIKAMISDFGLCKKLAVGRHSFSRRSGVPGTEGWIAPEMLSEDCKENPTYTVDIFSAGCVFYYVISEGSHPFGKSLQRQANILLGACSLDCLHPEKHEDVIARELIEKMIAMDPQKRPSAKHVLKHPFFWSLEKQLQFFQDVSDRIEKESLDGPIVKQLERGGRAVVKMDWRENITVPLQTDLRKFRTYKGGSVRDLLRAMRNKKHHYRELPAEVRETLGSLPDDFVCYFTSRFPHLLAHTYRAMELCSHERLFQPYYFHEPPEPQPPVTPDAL

Row | Compound | IC50
1 | CCCS(=O)(=O)Nc1c(F)ccc2c(Oc3ncncc3-c3ccnc(N[C@@H]4CNC[C@@H](F)C4)n3)c(C)ccc12 [Compound 4, N-(2-fluoro-5-((2-(((3S,5S)-5-fluoropiperidin-3-yl)amino)-[4,5′-bipyrimidin]-4′-yl)oxy)-6-methylnaphthalen-1-yl)propane-1-sulfonamide] | 3.3 nM
2 | CCCS(=O)(=O)Nc1cccc2c(Oc3nnccc3-c3ccnc(N[C@H]4CCCNC4)n3)c(C)ccc12 [Compound 3, (S)-N-(6-methyl-5-((4-(2-(piperidin-3-ylamino)pyrimidin-4-yl)pyridazin-3-yl)oxy)naphthalen-1-yl)propane-1-sulfonamide] | 12 nM

Second part, the compound after the results:

Row | IC50 | Compound
3 | 7.1 nM | CCCS(=O)(=O)Nc1c(F)ccc2c(Oc3nnccc3-c3ccnc(N[C@@H]4CNC[C@@H](F)C4)n3)c(C)ccc12 [Compound 6, N-(2-fluoro-5-((4-(2-(((3S,5S)-5-fluoropiperidin-3-yl)amino)pyrimidin-4-yl)pyridazin-3-yl)oxy)-6-methylnaphthalen-1-yl)propane-1-sulfonamide]
4 | 6.1 nM | Cc1ccc2c(NS(=O)(=O)c3ccccc3Cl)cccc2c1Oc1nnccc1-c1ccnc(N[C@H]2CCCNC2)n1 [Compound 1, (S)-2-chloro-N-(6-methyl-5-((4-(2-(piperidin-3-ylamino)pyrimidin-4-yl)pyridazin-3-yl)oxy)naphthalen-1-yl)benzenesulfonamide]
5 | 38 nM | Cc1ccc2c(NC(=O)C3CC3)cccc2c1Oc1nnccc1-c1ccnc(N[C@H]2CCCNC2)n1 [Compound 2, (S)-N-(6-methyl-5-((4-(2-(piperidin-3-ylamino)pyrimidin-4-yl)pyridazin-3-yl)oxy)naphthalen-1-yl)cyclopropanecarboxamide]
6 | 3.1 nM | Cc1ccc2c(NS(=O)(=O)CCC(C)(F)F)c(F)ccc2c1Oc1nnccc1-c1ccnc(N[C@@H]2CNC[C@@H](F)C2)n1 [Compound 5, 3,3-difluoro-N-[2-fluoro-6-methyl-5-[4-[2-[[-(3S,5S)-5-fluoro-3-piperidyl]amino]pyrimidin-4-yl]pyridazin-3-yl]oxy-1-naphthyl]butane-1-sulfonamide]

Tested on: cells
Assay: not given
Conditions: high levels; cited from earlier work

Row | Compound | toxicity in cells
7 | Cc1cc(=O)oc2c(C=O)c(O)ccc12 [Compound 4μ8C] | no measurable toxicity
